pIC50: −log10 of the molar value. Read-outs that look alike come from different tables or passages of the source.
Key:
CXCR4 [1] = molecular target: T1, CXCR4 (Homo sapiens, UniProt P61073); assay: CXCL12^AF647 binding assay on Jurkat cells; details: Jurkat cells, 2.9 nM CXCL12^AF647, mean ± SEM; read-out: IC50 CXCL12-CXCR4 binding interaction
Description: In brief, Jurkat cells were washed twice in assay buffer [Hank’s Balanced Salt Solution (HBSS; Thermo Fisher Scientific), 20 mM HEPES buffer (Thermo Fisher Scientific), 0.2% bovine serum albumin (Sigma-Aldrich), pH 7.4]. […] Afterwards, cells were washed twice in assay buffer and subsequently fixed in 1% paraformaldehyde in Dulbecco’s phosphate buffered saline (DPBS). Samples were analyzed with the FACSArray flow cytometer (Becton Dickinson, NJ, USA). Data were further analyzed with the FlowJo Software (Ashland, Oregon, USA).

CXCR4 [2] = molecular target: T1, CXCR4; assay: Calcium mobilization assay (FLIPR Tetra) in U87.CD4.CXCR4 cells; assay type: cell-based; details: U87.CD4.CXCR4 cells, 6.25 nM CXCL12, mean ± SEM; read-out: IC50 Calcium signaling (CXCL12-induced)
Description: U87.CD4.CXCR4 cells were seeded at 2x10^4 cells per well in gelatin-coated black-walled 96-well plates [0.1% gelatin in DPBS, incubated at RT for two hours and washed once with DPBS] and incubated at 37°C and 5% CO2 overnight. […] Fluo-2 AM loaded cells were washed with assay buffer before being incubated in the FLIPR Tetra system at 37°C for five minutes. At the start of the kinetic measurement, compounds were added to the cell plate by the internal robotic system followed by an incubation period of 10 minutes during which changes in the intracellular calcium level were continuously measured by the FLIPR Tetra. […] Each condition was measured in triplicate and repeated several times as further indicated (see Results).

[3] = test system: CXCR4-positive Jurkat cells; assay: cells; assay type: cell-based, human; details: Jurkat cells, 6.25 nM CXCL12, two hours, mean ± SEM; read-out: IC50 Chemotaxis
Description: Jurkat cells were washed twice in assay buffer (see above), dispensed into a 96-well plate (5x10^5 cells per well) containing serial dilutions of compounds (in assay buffer) and incubated at RT in the dark for 10 minutes. […] Suspensions of 1.87x10^4 cells were transferred to the chemotaxis insert plate. […] After removal of the insert plate, migrated cells were centrifuged and resuspended in DPBS containing flow cytometry cell counting beads ([…] Fluorescent Particles; Gentaur, London, UK). Both migrated cells and particles were counted by flow cytometry (FACSCanto II; Becton Dickinson). Each compound concentration was tested in triplicate. Data were analyzed using the FlowJo software and the total number of migrated cells was calculated, according to the counted and total number of beads present in the sample.

HIV-1 NL4-3 (X4) [4] = assay: microbe, parasite or virus in culture; assay type: cell-based; details: MT-4 cells, four days post infection, MTS, mean ± SEM; read-out: IC50 HIV-1 (X4) NL4-3 replication, MT-4 cells
Description: The anti-HIV replication assays in MT-4 cells and PHA-stimulated PBMCs have been described previously. The HIV-1 T-tropic molecular clone NL4-3 (X4) was obtained from the National Institute of Allergy and Infectious Disease (NIAID) AIDS reagent program (Bethesda, MD, USA). Briefly, 5x10^4 MT-4 cells (in cell culture medium) were treated with different concentrations of compound at 37°C for 30 minutes. Afterwards, a 50% tissue culture infectious dose of the NL4-3 viral stock was added to the cell-compound mixtures. Four days post infection, the cytopathic effect was evaluated microscopically and cell viability was assessed with the MTS method, as described above.
In the antiviral assays, each condition was tested in duplicate.

HIV-1 NL4-3 (X4) [5] = assay: microbe, parasite or virus in culture; assay type: cell-based; details: PHA-stimulated PBMCs, ten days post infection, p24 Ag ELISA, mean ± SEM; read-out: IC50 HIV-1 (X4) NL4-3 replication, PHA-stimulated PBMCs
Description: PHA-stimulated PBMCs at 5x10^5 cells per sample, pre-incubated with test compounds dissolved in cell culture medium containing IL-2 (2 ng/ml; […] After three days, fresh culture medium with IL-2 was added. Ten days post infection cell supernatant was collected for HIV-1 p24 core antigen enzyme-linked immunosorbent assay (ELISA; Perkin Elmer, Boston, MA, USA) according to the manufacturer’s protocol. In the antiviral assays, each condition was tested in duplicate.

CXCR4 [6] = molecular target: T1, CXCR4; assay: CXCR4 internalization assay in SUP-T1 cells; assay type: cell-based; parameters: CXCR4 receptors endogenously expressed on SUP-T1 cells; endogenous in cells; host or cells: SUP-T1 (ATCC)
Description: T-lymphoblastic SUP-T1 cells were washed twice in DPBS containing 2% FBS. Afterwards, cells were first incubated with the PE-labeled rat anti-human CXCR4 mAb (clone 1D9; 2 μg/ml in DPBS/2% FBS; BD Pharmingen) on ice for 45 minutes. […] SUP-T1 cells were subsequently washed once with ice cold DPBS and twice with ice cold assay buffer (see above) before being treated with test compound on ice for 15 minutes. […] Samples were immediately analyzed with the FACSCalibur flow cytometer (Becton Dickinson) whereby the measured fluorescence corresponds to the amount of […] CXCR4 receptors. Data were further analyzed with the FlowJo software.

CXCR4 [7] = molecular target: T1, CXCR4; assay: CXCL12/CXCR4 interaction on SUP-T1 cells; assay type: binding; parameters: CXCR4 receptors endogenously expressed on SUP-T1 cells; endogenous in cells; host or cells: SUP-T1 (ATCC); details: high concentration, data not shown
CXCR4 [8] = molecular target: T1, CXCR4; assay: Labeled CXCR4 monoclonal antibody binding (clones 12G5, 1D9), flow cytometry; parameters: CXCR4 receptors endogenously expressed on SUP-T1 cells; endogenous in cells; host or cells: SUP-T1 (ATCC); details: 12G5 clone and 1D9 clone, data not shown
Description: A feature of CXCR4, shared with many other GPCRs, is its internalization following agonist binding, also known as receptor endocytosis. To evaluate the potential inhibitory effect of the compounds on CXCR4 endocytosis, CXCR4 receptors endogenously expressed on SUP-T1 cells were first stained with a PE-labeled rat anti-human CXCR4 mAb targeting the receptor’s N-terminus (clone 1D9) and subsequently incubated with compound. […] In addition, when SUP-T1 cells were incubated with compound for thirty minutes at 4°C, and afterwards stained with the CXCR4 mAb (1D9) for thirty minutes at 4°C, no displacement (i.e. decrease in mAb binding) of the CXCR4 mAb was observed by flow cytometry (data not shown). […] In consequence, reduced cellular staining in our assay reflects the inhibitory effects of compounds on receptor internalization and not simply displacement of the CXCR4 mAb.

T1 sequence (P61073 whole entry): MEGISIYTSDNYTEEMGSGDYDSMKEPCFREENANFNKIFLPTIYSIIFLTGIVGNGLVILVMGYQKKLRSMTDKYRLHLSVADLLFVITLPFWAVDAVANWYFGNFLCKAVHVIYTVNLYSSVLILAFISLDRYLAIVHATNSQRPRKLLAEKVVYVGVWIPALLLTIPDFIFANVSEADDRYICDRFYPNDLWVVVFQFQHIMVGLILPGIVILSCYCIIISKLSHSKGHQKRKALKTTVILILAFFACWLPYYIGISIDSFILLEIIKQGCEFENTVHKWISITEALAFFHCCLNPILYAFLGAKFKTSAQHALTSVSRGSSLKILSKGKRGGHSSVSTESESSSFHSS

pIC50 (CXCR4 [1]): < 4.00
pIC50 (CXCR4 [2]): < 4.00
pIC50 [3]: < 4.00
pIC50 (HIV-1 NL4-3 (X4) [4]): < 4.00
pIC50 (HIV-1 NL4-3 (X4) [5]): 4.42
induction of CXCR4 internalization (agonistic effect) (CXCR4 [6]; 100 μM, in absence of CXCL12, data not shown): absence of an agonistic effect
pIC50 (CXCR4 [6]; SUP-T1 cells, 6.25 nM CXCL12, 37°C 30 minutes, mean ± SEM): < 4.00
reduction of labeled CXCR4 mAb binding (CXCR4 [8]): unable to reduce mAb binding
SMILES: c1ccc(NCc2ccc(CNc3ccccn3)cc2)nc1 [WZ811]
inhibition of the interaction between CXCL12 and CXCR4 (CXCR4 [7]): unable, even at high concentration, to inhibit the interaction between CXCL12 and CXCR4
